Among the data in US20230382940A1, “ANTIVIRAL COMPOUNDS AND METHODS OF MAKING AND USING THE SAME” (Gilead Sciences, Inc., priority 2022, published 2023) are EC50 values, retold here.

Each structure is given as a SMILES string.

Holding throughout (format): cell-based
For test [1], the system named is Respiratory syncytial virus recombinant with luciferase (RSV-Luc5). In words: NHBE RSV-Luc5 384-well assay (EC50 RSVFLUC NHBE-384 v2), Example W. As to conditions: human respiratory syncytial virus, 72 h, read-out: EC50 RSV FLUC NHBE 384 V2 (per Ex. W). An excerpt:
Example W: NHBE RSV-Luc5 384-Well Assay (EC50 RSVFLUC NHBE-384 v2)
Normal Human Bronchial Epithelial (NHBE) cells were purchased from Lonza (Walkersville, MD Cat #CC2540) and maintained in BEGM Bronchial Epithelial Cell Growth Medium BulletKit (Lonza CC-3170).
Cells were thawed, expanded, and were used for experiments at passage 2. Respiratory syncytial virus recombinant with luciferase (RSV-Luc5) (≥1×10^7 Infectious Units/mL (IU/mL) determined by TCID50) was purchased from Microbiologics (Saint Cloud, MN). Viral replication was determined in NHBE cells in the following manner.
(§1) Compounds are prepared in 100% DMSO in 384-well polypropylene plates (Greiner, Monroe, NC, Cat #784201) with 8 compounds per plate in grouped replicates of 4 at 10 serially diluted concentrations (1:3). The serially diluted compounds were transferred to low dead volume Echo plates (Labcyte, Sunnyvale, CA, Cat #LP-0200).
The test compounds were spotted to 384-well assay plates (Greiner, Monroe, NC, Cat #781091) at 200 nL per well using an Echo acoustic dispenser (Labcyte, Sunnyvale, CA). NHBE cells were harvested and suspended in BEGM Bronchial Epithelial Cell Growth Medium BulletKit and seeded to the pre-spotted assay plates at 5,000 cells per well in 30 μL. RSV-Luc5 virus was diluted in BEGM Bronchial Epithelial Cell Growth Medium BulletKit at 500,000 Infectious Units (IU) per mL and 10 μL per well was added to the assay plates containing cells and compounds, for an MOI of 1. The assay plates were incubated for 3 days at 37° C. and 5% CO2. At the end of incubation, One-Glo reagent (Promega, Madison, WI, Cat #E6120) was prepared. The assay plates and One-Glo reagent were equilibrated to room temperature for at least 15 minutes. 40 μL per well of One-Glo reagent was added and the plates were incubated at room temperature for 15 minutes before reading the luminescence signal on an EnVision multimode plate reader (Perkin Elmer, Waltham, MA). Remdesivir was used as positive control and DMSO was used as negative control. Values were normalized to the positive and negative controls (as 0% and 100% replication, respectively) and data was fitted using non-linear regression analysis by Gilead's dose response tool. The EC50 value for each compound was defined as the concentration reducing the viral replication by 50%.

For test [2] the test system is unchanged. The test is described as follows: HEp-2 RSV-Luc5 384-well assay (EC50 RSVFLUC Hep2-384 v2), Example V. As to conditions: human respiratory syncytial virus, HEp-2, 72 h, read-out: EC50 RSV FLuc Hep-2 384 V2 (per Ex. V).
Source text: Example V: HEp-2 RSV-Luc5 384-Well Assay (EC50 RSVFLUC Hep2-384 v2)
HEp-2 cell line was purchased from ATCC (Manassas, VA Cat #CCL-23) and maintained in Dulbecco's […] (DMEM) (Corning, New York, NY, Cat #15-018CM) supplemented with 10% fetal bovine serum (FBS) (Hyclone, Logan, UT, Cat #SH30071-03) and 1× Penicillin-Streptomycin-L-Glutamine (Corning, New York, NY, Cat #30-009-C1). Cells were passaged 2 times per week to maintain sub-confluent densities and were used for experiments at passage 5-20. Respiratory syncytial virus recombinant with luciferase (RSV-Luc5) (≥1×107 TCID50/ml) was purchased from Microbiologics (Saint Cloud, MN). Viral replication was determined in HEp-2 cells in the following manner.
as §1
The test compounds were spotted to 384-well assay plates (Greiner, Monroe, NC, Cat #781091) at 200 nL per well. HEp-2 cells were harvested and suspended in DMEM (supplemented with 10% FBS and 1× Penicillin-Streptomycin-L-Glutamine) and seeded to the pre-spotted assay plates at 4,000 cells per well in 30 μL. RSV-Luc5 viruses were diluted in DMEM (supplemented with 10% FBS and 1× Penicillin-Streptomycin-L-(Glutamine) at 200,000 Infectious Units (IU) per mL and 10 μL per well was added to the assay plates containing cells and compounds, for an MOI=0.5. The assay plates were incubated for 3 days at 37° C. and 5% CO2. At the end of incubation, One-Glo reagent (Promega, Madison, WI, Cat #E6120) was prepared. The assay plates and One-Glo reagent were equilibrated to room temperature for at least 15 minutes. 40 μL per well of One-Glo reagent was added and the plates were incubated at room temp for 15 minutes before reading the luminescence signal on an EnVision multimode plate reader (Perkin Elmer, Waltham, MA). Remdesivir was used as positive control and DMSO was used as negative control. Values were normalized to the positive and negative controls (as 0% and 100% replication, respectively) and data was fitted using non-linear regression analysis by Gilead's dose response tool. The EC50 value for each compound was then determined as the concentration reducing the viral replication by 50%.

The subject of test [3] is Human Rhinovirus 14 (HRV14). The test is described as follows: H1-HeLa HRV-CTG 384-well assay, HRV14, Example X. Particulars: Rhinovirus B, 96 h; H1-HeLa cells, HRV14 MOI 1.0, 4 days, Celltiter-Glo; read-out: EC50 H1-HeLa_HRV 14_HRV-CTG 384-well Assay (per Ex. X). An excerpt:
(§2) Example X: H1-HeLa HRV-CTG 384-Well Assay
(§3) H1-Hela cell line (ATCC, Manassas, VA, Cat #CRL-1958) was maintained in Dulbecco's […] (DMEM) (Corning, New York, NY, Cat #15-018CM) supplemented with 10% fetal bovine serum (FBS) (Hyclone, Logan, UT, Cat #SH30071-03), and 1× Penicillin-Streptomycin-L-Glutamine (Corning, New York, NY, Cat #30-009-CI). Cells were passaged 2 times per week to maintain sub-confluent densities and were used for experiments at passage 5-30. The Human Rhinovirus 1B (HRV1B) (ATCC, Manassas, VA, Cat #VR-1645), Human Rhinovirus 14 (HRV14) (ATCC, Manassas, VA, Cat #VR-284), and Human Rhinovirus 16 (HRV16) (ATCC, Manassas, VA, Cat #BR-283) was obtained through ATCC. Viral infection was monitored by determining viability of H1-HeLa cells as described below.
(§4) Test molecules are prepared in 100% DMSO in 384-well polypropylene plates (Greiner, Monroe, NC, Cat #784201) with 8 compounds per plate in grouped replicates of 4 at 10 serially diluted concentrations (1:3). The serially diluted compounds were transferred to low dead volume Echo plates (Labcyte, Sunnyvale, CA, Cat #LP-0200).
(§5) The test compounds were spotted to 384-well assay plates (Greiner, Monroe, NC, Cat #781091) at 200 nL per well using an Echo acoustic dispenser (Labcyte, Sunnyvale, CA). H1-HeLa cells were harvested and suspended in DMEM (supplemented with 2% FBS and 1× Penicillin-Streptomycin-L-Glutamine) and seeded to the pre-spotted assay plates at 5,000 cells per well in 30 μL. HRV1B, HRV14, and HRV16 was diluted in DMEM (supplemented with 2% FBS and 1× Penicillin-Streptomycin-L-Glutamine) at 97.1 million Infectious Units (IU) per mL, 151 million IU per mL and 221 million IU per mL respectively. 10 μL of virus per well was added to the assay plates containing cells and compounds, for an MOI of 0.5, 1.0, and 0.25 respectively. The assay plates were incubated for 4 days at 37° C. and 5% CO2. At the end of incubation, Celltiter-Glo (Promega, Madison, WI, Cat #G7573) was prepared. The assay plates and Celltiter-Glo reagent were equilibrated to room temperature for at least 15 minutes. 40 μL per well of Celltiter-Glo reagent was added and the plates were incubated at room temperature for 15 minutes before reading the luminescence signal on an EnVision multimode plate reader (Perkin Elmer, Waltham, MA). Rupintrivir was used as positive control and DMSO was used as negative control. Values were normalized to the positive and negative controls (as 0% and 100% replication, respectively) and data was fitted using non-linear regression analysis by Gilead's dose response tool. The EC50 value for each compound was defined as the concentration reducing viral replication by 50%.

The test system of test [4] is Human Rhinovirus 16 (HRV16). In words: H1-HeLa HRV-CTG 384-well assay, HRV16, Example X. Particulars: Rhinovirus A, 96 h; H1-HeLa cells, HRV16 MOI 0.25, 4 days, Celltiter-Glo; read-out: EC50 H1-HeLa_HRV 16_HRV-CTG 384-well Assay (per Ex. X).
Source text: as §2, §3, §4, §5

Test [5] has as its system Human Rhinovirus 1B (HRV1B). The test is described as follows: H1-HeLa HRV-CTG 384-well assay, HRV1B, Example X. As to conditions: Rhinovirus A, 96 h; H1-HeLa cells, HRV1B MOI 0.5, 4 days, Celltiter-Glo; read-out: EC50 H1-HeLa_HRV 1B_HRV-CTG 384-well Assay (per Ex. X).
Source text: as §2, §3, §4, §5

Turning to `CO[C@@H]1O[C@H]2[C@H](c3ccc4c(N)ncnn34)O[C@](C#N)(COC(=O)OCC(C)C)[C@H]2O1` (single isomer, unassigned) [Compound 25], the EC50 in test [1], in test [2], in test [3], in test [4] and in test [5] was 50 µM each time.
Regarding `CO[C@H]1O[C@H]2[C@H](c3ccc4c(N)ncnn34)O[C@](C#N)(COC(=O)OCC(C)C)[C@H]2O1` (single isomer, unassigned) [Compound 26], the concentration for a half-maximal effect (EC50) in test [1], in test [2], in test [3], in test [4] and in test [5] was 50 µM in each case.
For `CC1(OC(=O)OC[C@@]2(C#N)O[C@@H](c3ccc4c(N)ncnn34)[C@H](O)[C@@H]2O)CC1` [Compound 3, ((2R,3S,4R,5S)-5-(4-aminopyrrolo[2,1-f][1,2,4]triazin-7-yl)-2-cyano-3,4-dihydroxytetrahydrofuran-2-yl)methyl (1-methylcyclopropyl) carbonate], the EC50 in test [1] stood at 7.93 µM; in test [2], 20.9 µM; in test [3], 24.4 µM; in test [4] it was 34.5 µM; in test [5], 16 µM.
As for `N#C[C@]1(COC(=O)OC2CCCCCCC2)O[C@@H](c2ccc3c(N)ncnn23)[C@H](O)[C@@H]1O` [Compound 18, ((2R,3S,4R,5S)-5-(4-aminopyrrolo[2,1-f][1,2,4]triazin-7-yl)-2-cyano-3,4-dihydroxytetrahydrofuran-2-yl)methyl cyclooctyl carbonate], in test [1], the EC50 came out at 5.77 µM.
Same read-out and setting: to `CC(C)(OC(=O)OC[C@@]1(C#N)O[C@@H](c2ccc3c(N)ncnn23)[C@H](O)[C@@H]1O)C(F)F` [Compound 27, ((2R,3S,4R,5S)-5-(4-aminopyrrolo[2,1-f][1,2,4]triazin-7-yl)-2-cyano-3,4-dihydroxytetrahydrofuran-2-yl)methyl (1,1-difluoro-2-methylpropan-2-yl) carbonate] belongs 8.03 µM; to `CC(C)OC(=O)Nc1ncnn2c([C@@H]3O[C@](C#N)(COC(=O)OC(C)C)[C@@H](OC(=O)OC(C)C)[C@H]3OC(=O)OC(C)C)ccc12` [Compound 42, Isopropyl (7-((2S,3S,4S,5R)-5-cyano-3,4-bis((isopropoxycarbonyl)oxy)-5-(((isopropoxycarbonyl)oxy)methyl)tetrahydrofuran-2-yl)pyrrolo[2,1-f][1,2,4]triazin-4-yl)carbamate], 26.1 µM; to `CC(C)OC(=O)OC[C@@]1(C#N)O[C@@H](c2ccc3c(N)ncnn23)[C@H](OC(=O)OC(C)C)[C@@H]1OC(=O)OC(C)C` [Compound 43, (2R,3S,4S,5S)-5-(4-aminopyrrolo[2,1-f][1,2,4]triazin-7-yl)-2-cyano-2-(((isopropoxycarbonyl)oxy)methyl)tetrahydrofuran-3,4-diyl diisopropyl bis(carbonate)], 6.99 µM.
Still for that read-out and setting: to `COC(=O)Nc1ncnn2c([C@@H]3O[C@](C#N)(COC(=O)OC)[C@@H](OC(=O)OC)[C@H]3OC(=O)OC)ccc12` [Compound 44, Methyl (7-((2S,3S,4S,5R)-5-cyano-3,4-bis((methoxycarbonyl)oxy)-5-(((methoxycarbonyl)oxy)methyl)tetrahydrofuran-2-yl)pyrrolo[2,1-f][1,2,4]triazin-4-yl)carbamate] belongs 15.8 µM.
Turning to `COC(=O)OC[C@@]1(C#N)O[C@@H](c2ccc3c(N)ncnn23)[C@H](OC(=O)OC)[C@@H]1OC(=O)OC` [Compound 45, (2R,3S,4S,5S)-5-(4-aminopyrrolo[2,1-f][1,2,4]triazin-7-yl)-2-cyano-2-(((methoxycarbonyl)oxy)methyl)tetrahydrofuran-3,4-diyl dimethyl bis(carbonate)], in test [1], the EC50 turned out to be 29.4 µM.
